Consider two compounds from patent US20250333398A1, “MONOARYL AND HETARYL SUBSTITUTED INDAZOLES AND BENZIMIDAZOLES AS STING ANTAGONISTS AND THE USE THEREOF AS MEDICAMENT” (Boehringer Ingelheim International GmbH, priority 2024, published 2025).

Structures are written as SMILES.

The test system of assay [1] is T1, wild-type (GRR) human STING cGAMP binding domain (residues 155-341).
T1 construct: His-TEV-hSTING (WT); TEV protease cleavage site (N); made in house; host or cells: E. coli BL21 DE3
In words: Differential Scanning Fluorimetry (DSF), stability of STING protein against thermal denaturation. As to conditions: 100 uM compound, 3 uM target protein. As to the method: Dye fluorescence is quenched in aqueous environment and increases upon association of the dye with the hydrophobic parts of the unfolding protein. […] The inflection point of the curve represents the “melting” temperature of the protein (Tm) which is calculated numerically using the Boltzmann equation.
Method: The thermal stability of the STING protein was measured using a specific expression construct of the cGAMP binding domain of wild-type (GRR) human STING comprising residues 155-341 and a N-terminal 8x His-tag in assay buffer containing 20 mM Tris, 150 mM NaCl at pH7.5.
The assay uses Hard-Shell®PCR Plates 384-Well CLR/WHT (Catalog #HSP3805, BIO-RAD), Microseal®‘B’ Adhesive Seals for PCR Plates (Catalog #MSB-1001, BIO-RAD) and was run on a CFX384 Real-Time System (Bio-Rad).
A DMSO stock solution of SYPRO orange (SIGMA S5692-500UL) was prepared.
Compound stock solutions (10 mM in DMSO) were diluted 1:2 in DMSO to an intermediate compound concentration of 5 mM and then further diluted 1:40 in assay buffer resulting in a compound concentration of 125 μM and 2.5% DMSO.
Fluorescent dye stock solution (5000×SYPRO Orange) was then mixed with target protein and buffer to a concentration of 15 uM Protein and 25×SYPRO Orange. 2 ul of this protein-dye-mixture was added to 8 ul compound solution. Final volume was 10 uL. 3-6 well positions were used as negative control (protein with 2% DMSO). The plates were prepared for duplicate measurement and centrifuged for 2 min at 1000 g. In the measurement, 160 cycles of 0.5° C. were used (temperature ramp 15 s/cycle, 15° C. to 95° C.).
Final Assay concentrations for compound characterization were as follows:
100 uM compound, 3 uM target protein, 5×SYPRO Orange, 2% DMSO in 10 ul. All dispensing steps were performed using a HamiltonStar pipetting robot (Hamilton).
Dissociation curves were processed in Bio-Rad CFX Manager. Peak type was set to “negative”.
Compound codes for screen were assigned in the plate layout.
Two replicates of TM measurements were averaged, and the standard deviation was calculated. In cases of SD>1.5° C. the measurement was repeated.
The melting point (Tm) obtained for STING protein alone was subtracted from T obtained for protein incubated with ligand to generate ΔTm values.
Protein production and purification: The protein used for the biophysical experiments was a recombinant human STING protein comprising its cytosolic ectodomain. A codon optimized DNA sequence (for expression in Escherichia coli) encoding amino acid residues 155 to 341 (Swiss Prot Q86WV6) of human STING (WT) was synthesized by GeneArt (Regensburg, Germany) and inserted into a pET17b E. coli expression vector. The protein construct encodes an N-terminal 8× His-tag followed by tobacco etch virus protease (TEV) cleavage site and the above STING gene sequence. The resulting protein sequence for the used STING variant is listed below:
For expression of recombinant human STING above construct was transformed into E. coli BL21 DE3 strain and grown in shake flasks in LB-medium at 37° C. Expression was induced by addition of isopropyl β-D-1-thiogalactopyranoside to a final concentration of 1 mM and cultures shaken overnight. Cell pellets were centrifuged and stored at −70° C. until further use. Protein was purified by cell thawing in lysis buffer (20 mM TRIS-HCl, pH 8, 300 mM NaCl, 2 mM mercaptoethanol, 20 mM imidazole, Complete Protease Inhibitor (Roche) and DNase (Roche)), followed by metal affinity purification using Ni-NTA resins and elution buffer consisting of 20 mM TRIS-HCl, pH 8, 300 mM NaCl, 2 mM mercaptoethanol, 300 mM imidazole and size exclusion chromatography in running buffer (20 mM TRIS-HCl, pH 8, 100 mM NaCl, 2 mM DTT). The peak fraction was collected and concentrated to 2.5 mg/mL.
(Differential scanning fluorimetry follows unfolding on heating by fluorescence.)

The next assay concerns T2, STING.
T2 construct: from tissue; host or cells: human whole blood from healthy donors
In words: Human whole blood assay (HWBA), cGAMP-stimulated IFNα2α production. In kind it is cell-based. As to conditions: human whole blood stimulated by cGAMP. As to the method: For the detection of STING inhibition in physiological environment human whole blood was stimulated by the cyclic dinucleotide cGAMP. Pathway activity was monitored by measuring the IFNα2α production.
Assay method: Compounds were delivered as 10 mM DMSO solution and serial diluted and transferred to the 96-well Cell culture Plate (Corning #3595), prefilled with 20 μl OptiMEM (Gibco #11058-021) in each well, using an Echo acoustic dispenser. Typically, 8 concentrations were used with the highest concentration at 10 μM in the final assay volume followed by ^˜1:5 dilution steps. DMSO concentration was set to 0.1% in the final assay volume. The 96 well assay plate contained 9 test compounds, a reference compound and DMSO in control wells.
Collection of human whole blood from 3 or more healthy donors (male or female, no medication for 7 days, exception contraceptive and thyroxine) as Na-citrate blood (e.g. 3.8% in Monovettes from Sarstedt) is conducted in parallel. Whole blood was kept at room temperature for a maximum of 3 hours after collection until use in the assay.
160 μl of the whole blood samples were transferred to each well of the 96-well assay plates filled with compound/OptiMEM. All assay plates are prepared as duplicates with blood from different donors. Blood plates were kept at room temperature for 60 minutes and continuous shaking with 450 rpm, covered with the lid, but not sealed.
A 10× cGAMP assay solution was diluted from a 2 mM stock solution in 1×HBSS immediately before use at room temperature. 20 μl of the 10× cGAMP/HBSS were added to all compound and all high control wells, whereas HBSS only was added to all low control wells.
After covering assay plates with aera seals and the lid, blood plates were kept at room temperature for 30 minutes and continuous shaking with 450 rpm, followed by an overnight incubation of 22 h at 37° C. in the incubator, without shaking.
For the detection of IFNα-2α in human plasma, the biotinylated capture antibody (Antibody set IFNA2, Meso Scale Diagnostics #B21VH-3, including coating and capture antibody) was diluted 1:17.5 in Diluent 100 (Meso Scale Diagnostics #R50AA-4, according to the manufacturer. U-Plex MSD GOLD 96-well Small Spot Streptavidin SECTOR Plates (Meso Scale Diagnostics #L45SA-5) were coated with 25 μl diluted capture antibody. Coated plates were incubated for 60 min at room temperature under continuous shaking at 700 rpm. MSD IFNα-2α plates were washed three times with 150 μl wash buffer (1×HBSS, 0.05% Tween).
After blocking the plates with 100 μl block solution/well (1×HBSS with 0.2% Tween, 2% BSA) for 60 min at room temperature and continuous shaking at 700 rpm, plates were emptied as dry as possible by dumping just before continuing with the human plasma. Whole Blood assay plates were centrifuged at 1600 rpm for 10 minutes. 25 μl of supernatant was transferred with a pipetting robotics from each whole blood plate to the corresponding IFNα-2α plate. Plates were sealed with microplate seals and kept at room temperature again under continuous shaking at 700 rpm for two hours. Next MSD IFNα-2α plates were washed three times with 150 μl wash buffer (1×HBSS, 0.05% Tween), before adding 25 μl MSD SULFO-TAG IFNα-2α Antibody solution (1:100 diluted in Diluent 3 (Meso Scale Diagnostics #R50AP-2) to each well of the plates. Afterwards plates were sealed with microplate seals and kept at room temperature again under continuous shaking at 700 rpm for two hours. Finally, MSD IFNα-2α plates were washed three times with 150 μl wash buffer (1×HBSS, 0.05% Tween). 150 μl 2× Read buffer was added to each well and plates were immediately measured with the MSD Sector S600 Reader using the vendor barcode.
Data evaluation and calculation: For data evaluation and calculation, % control calculation of each well was based on the mean of high (cGAMP stimulated control) and mean of low (unstimulated control) controls by using the following formula: […]

The term IC50 denotes the point on the concentration scale where inhibition reaches its midpoint. Take `CNC(=O)c1ccc(-c2nc(-c3cccc4nn(-c5cn(C6CC6)nc5OC)cc34)c(C3CC3)n2C)c(OC(F)(F)F)c1` [Example 1, 4-{5-cyclopropyl-4-[2-(1-cyclopropyl-3-methoxy-1H-pyrazol-4-yl)-2H-indazol-4-yl]-1-methyl-1H-imidazol-2-yl}-N-methyl-3-(trifluoromethoxy)benzamide]: the “DSF ΔTm (K)” value in assay [1] is 28 K. In the assay with STING, the IC50 is 82 nM.

Regarding `Cn1c(-c2ccc(P(C)(C)=O)cc2OC(F)(F)F)nc(-c2cccc3nn(-c4cc(C(F)(F)F)[nH]n4)cc23)c1C1CC1` [Example 21, 4-{5-cyclopropyl-2-[4-(dimethylphosphoryl)-2-(trifluoromethoxy)phenyl]-1-methylimidazol-4-yl}-2-[5-(trifluoromethyl)-1H-pyrazol-3-yl]indazole], the “DSF ΔTm (K)” value in assay [1] is given as 29 K. This compound also showed an IC50 with STING of 130 nM.
